Data: ChEMBL document CHEMBL1201862, “PubChem BioAssay data set” (2004)
Active and inactive are the calls of the source.

Experiments:
Mu-type opioid receptor = Mu-type opioid receptor (Homo sapiens, UniProt P35372); format: functional, cell-based;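 note: U2OS cells with beta-arrestin recruitment to OPRM1 by beta-gal complementation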
[1] = target: 5-hydroxytryptamine receptor 2A (Mus musculus, UniProt P35363); format: functional, cell-based;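 note: CHO-K1 cells with tagged receptor and beta-arrestin; agonist potency measured as compound-induced activation of the receptor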
Chain of 5-hydroxytryptamine receptor 2A (P35363 whole entry): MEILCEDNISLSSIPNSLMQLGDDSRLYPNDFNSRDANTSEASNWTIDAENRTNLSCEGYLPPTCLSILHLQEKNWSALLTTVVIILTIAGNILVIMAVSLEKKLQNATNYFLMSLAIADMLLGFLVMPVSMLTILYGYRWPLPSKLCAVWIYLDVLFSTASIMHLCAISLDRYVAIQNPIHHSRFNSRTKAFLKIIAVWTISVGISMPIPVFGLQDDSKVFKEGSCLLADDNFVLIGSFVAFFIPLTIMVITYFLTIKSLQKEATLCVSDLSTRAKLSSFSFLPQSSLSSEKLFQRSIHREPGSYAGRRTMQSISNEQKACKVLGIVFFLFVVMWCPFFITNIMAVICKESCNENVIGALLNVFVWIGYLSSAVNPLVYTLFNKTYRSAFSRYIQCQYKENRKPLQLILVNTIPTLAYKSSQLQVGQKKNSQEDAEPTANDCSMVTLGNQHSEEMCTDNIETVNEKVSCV

[2] = target: T1, Corticotropin-releasing factor receptor 2/Corticotropin-releasing factor-binding protein (Homo sapiens, UniProt P24387+Q13324); experiment: Dose Response confirmation of uHTS hits for small molecule antagonists of the CRF-binding protein and CRF-R2 receptor complex.; format: functional; details: read-out: IC50_Mean
T1 sequence (Q13324 whole entry): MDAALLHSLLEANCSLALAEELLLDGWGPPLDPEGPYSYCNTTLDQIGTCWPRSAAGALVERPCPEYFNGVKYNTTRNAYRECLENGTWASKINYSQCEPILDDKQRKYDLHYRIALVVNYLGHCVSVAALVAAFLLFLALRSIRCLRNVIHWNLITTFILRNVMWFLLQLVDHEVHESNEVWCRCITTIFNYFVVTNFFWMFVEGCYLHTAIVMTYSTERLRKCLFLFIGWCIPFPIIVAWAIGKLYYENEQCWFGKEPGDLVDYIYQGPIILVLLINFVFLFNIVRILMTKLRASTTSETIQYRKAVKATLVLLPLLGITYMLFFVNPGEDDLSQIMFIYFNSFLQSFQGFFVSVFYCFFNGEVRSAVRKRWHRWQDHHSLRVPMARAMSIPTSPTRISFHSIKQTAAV
T1 sequence (P24387 whole entry): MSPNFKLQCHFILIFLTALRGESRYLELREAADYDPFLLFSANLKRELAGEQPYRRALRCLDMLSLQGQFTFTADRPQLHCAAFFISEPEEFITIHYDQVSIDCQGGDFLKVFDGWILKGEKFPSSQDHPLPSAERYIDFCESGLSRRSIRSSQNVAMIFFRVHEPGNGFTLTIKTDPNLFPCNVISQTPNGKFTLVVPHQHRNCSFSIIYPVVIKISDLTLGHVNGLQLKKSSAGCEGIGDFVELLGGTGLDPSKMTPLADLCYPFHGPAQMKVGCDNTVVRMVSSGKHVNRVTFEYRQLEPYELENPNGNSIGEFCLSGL

[3] = target: T1, Corticotropin-releasing factor receptor 2/Corticotropin-releasing factor-binding protein; experiment: activators of CRF receptor 2 with binding protein – uHTS hits, confirmation (AID 602473); format: functional; details: read-out: EC50_Mean
[4] = target: Glucose-6-phosphate 1-dehydrogenase (Homo sapiens, UniProt P11413); experiment: inhibition of Homo sapiens G6PD, dose series – biochemical, fluorescence, selectivity assay for P. falciparum G6PD inhibitor project, dose response (AID 504792); format: functional
Chain of Glucose-6-phosphate 1-dehydrogenase (P11413 whole entry): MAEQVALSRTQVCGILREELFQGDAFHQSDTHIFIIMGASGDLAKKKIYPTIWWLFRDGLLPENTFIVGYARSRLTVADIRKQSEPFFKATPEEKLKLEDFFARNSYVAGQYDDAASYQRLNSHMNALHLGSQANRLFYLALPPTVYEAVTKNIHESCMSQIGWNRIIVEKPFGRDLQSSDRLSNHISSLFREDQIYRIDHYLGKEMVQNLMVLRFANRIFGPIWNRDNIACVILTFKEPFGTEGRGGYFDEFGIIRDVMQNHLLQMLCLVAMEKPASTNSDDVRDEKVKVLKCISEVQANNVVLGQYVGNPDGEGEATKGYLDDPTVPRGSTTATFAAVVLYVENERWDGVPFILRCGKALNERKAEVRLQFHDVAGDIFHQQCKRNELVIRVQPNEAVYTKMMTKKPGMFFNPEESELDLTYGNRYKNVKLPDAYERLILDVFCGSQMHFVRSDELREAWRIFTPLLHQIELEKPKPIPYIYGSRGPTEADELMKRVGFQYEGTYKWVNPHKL

[5] = target: T2, Short transient receptor potential channel 4 (Mus musculus, UniProt Q9QUQ5); experiment: block of DAMGO-driven TRPC4 calcium entry – cell-based, HEK293 TRPC4/mu-opioid, Fluo-4 calcium, dose response (AID 434942); format: functional;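 note: potency of inhibitors blocking the TRPC4 calcium response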
T2 sequence (Q9QUQ5 whole entry): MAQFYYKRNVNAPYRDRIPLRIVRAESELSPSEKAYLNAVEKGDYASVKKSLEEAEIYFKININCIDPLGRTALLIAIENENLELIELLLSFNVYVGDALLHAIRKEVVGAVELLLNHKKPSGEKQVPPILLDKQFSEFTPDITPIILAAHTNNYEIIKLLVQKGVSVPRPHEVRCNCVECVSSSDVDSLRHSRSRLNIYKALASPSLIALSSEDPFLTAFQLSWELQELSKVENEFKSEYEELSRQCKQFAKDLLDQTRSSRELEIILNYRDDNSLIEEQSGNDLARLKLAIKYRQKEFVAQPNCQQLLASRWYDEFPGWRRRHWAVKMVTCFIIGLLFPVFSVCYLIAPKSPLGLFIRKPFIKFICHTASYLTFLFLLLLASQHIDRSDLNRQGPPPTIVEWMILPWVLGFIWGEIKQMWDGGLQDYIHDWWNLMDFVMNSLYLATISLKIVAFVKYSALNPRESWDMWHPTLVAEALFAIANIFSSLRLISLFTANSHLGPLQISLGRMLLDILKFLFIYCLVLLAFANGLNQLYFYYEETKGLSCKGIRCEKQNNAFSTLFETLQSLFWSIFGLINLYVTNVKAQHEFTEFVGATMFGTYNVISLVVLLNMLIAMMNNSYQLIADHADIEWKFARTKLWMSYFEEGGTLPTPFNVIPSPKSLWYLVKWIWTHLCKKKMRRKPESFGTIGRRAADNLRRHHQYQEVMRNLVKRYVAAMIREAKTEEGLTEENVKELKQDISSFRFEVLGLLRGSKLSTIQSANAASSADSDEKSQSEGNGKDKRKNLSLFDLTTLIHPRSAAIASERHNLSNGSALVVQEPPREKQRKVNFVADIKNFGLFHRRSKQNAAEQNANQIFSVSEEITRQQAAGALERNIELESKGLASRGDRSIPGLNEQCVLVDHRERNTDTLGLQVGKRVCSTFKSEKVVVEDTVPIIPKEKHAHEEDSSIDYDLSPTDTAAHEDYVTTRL

[6] = target: T3, Calpain-2 catalytic subunit (Sus scrofa, UniProt P43367); experiment: m-calpain protease blockers, concentration series – biochemical, fluorogenic peptide substrate, dose response (AID 1420); format: functional
T3 sequence (P43367 whole entry): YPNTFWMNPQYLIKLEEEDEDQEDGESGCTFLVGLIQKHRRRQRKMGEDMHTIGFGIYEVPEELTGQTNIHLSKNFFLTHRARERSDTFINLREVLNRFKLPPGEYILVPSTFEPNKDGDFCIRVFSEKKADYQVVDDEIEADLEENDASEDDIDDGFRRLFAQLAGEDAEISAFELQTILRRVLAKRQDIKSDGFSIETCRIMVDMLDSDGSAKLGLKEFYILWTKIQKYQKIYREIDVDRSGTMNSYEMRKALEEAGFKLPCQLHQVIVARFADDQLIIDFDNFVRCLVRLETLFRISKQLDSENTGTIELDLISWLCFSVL

cells [7] = format: functional, cell-based
cells [8] = format: functional, cell-based; remark: listed apart in the source
[9] = target: Voltage-dependent T-type calcium channel subunit alpha-1H (Homo sapiens, UniProt O95180); format: functional;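 note: channel activity triggered by adding a high calcium stimulation buffer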
Chain of Voltage-dependent T-type calcium channel subunit alpha-1H (O95180 whole entry): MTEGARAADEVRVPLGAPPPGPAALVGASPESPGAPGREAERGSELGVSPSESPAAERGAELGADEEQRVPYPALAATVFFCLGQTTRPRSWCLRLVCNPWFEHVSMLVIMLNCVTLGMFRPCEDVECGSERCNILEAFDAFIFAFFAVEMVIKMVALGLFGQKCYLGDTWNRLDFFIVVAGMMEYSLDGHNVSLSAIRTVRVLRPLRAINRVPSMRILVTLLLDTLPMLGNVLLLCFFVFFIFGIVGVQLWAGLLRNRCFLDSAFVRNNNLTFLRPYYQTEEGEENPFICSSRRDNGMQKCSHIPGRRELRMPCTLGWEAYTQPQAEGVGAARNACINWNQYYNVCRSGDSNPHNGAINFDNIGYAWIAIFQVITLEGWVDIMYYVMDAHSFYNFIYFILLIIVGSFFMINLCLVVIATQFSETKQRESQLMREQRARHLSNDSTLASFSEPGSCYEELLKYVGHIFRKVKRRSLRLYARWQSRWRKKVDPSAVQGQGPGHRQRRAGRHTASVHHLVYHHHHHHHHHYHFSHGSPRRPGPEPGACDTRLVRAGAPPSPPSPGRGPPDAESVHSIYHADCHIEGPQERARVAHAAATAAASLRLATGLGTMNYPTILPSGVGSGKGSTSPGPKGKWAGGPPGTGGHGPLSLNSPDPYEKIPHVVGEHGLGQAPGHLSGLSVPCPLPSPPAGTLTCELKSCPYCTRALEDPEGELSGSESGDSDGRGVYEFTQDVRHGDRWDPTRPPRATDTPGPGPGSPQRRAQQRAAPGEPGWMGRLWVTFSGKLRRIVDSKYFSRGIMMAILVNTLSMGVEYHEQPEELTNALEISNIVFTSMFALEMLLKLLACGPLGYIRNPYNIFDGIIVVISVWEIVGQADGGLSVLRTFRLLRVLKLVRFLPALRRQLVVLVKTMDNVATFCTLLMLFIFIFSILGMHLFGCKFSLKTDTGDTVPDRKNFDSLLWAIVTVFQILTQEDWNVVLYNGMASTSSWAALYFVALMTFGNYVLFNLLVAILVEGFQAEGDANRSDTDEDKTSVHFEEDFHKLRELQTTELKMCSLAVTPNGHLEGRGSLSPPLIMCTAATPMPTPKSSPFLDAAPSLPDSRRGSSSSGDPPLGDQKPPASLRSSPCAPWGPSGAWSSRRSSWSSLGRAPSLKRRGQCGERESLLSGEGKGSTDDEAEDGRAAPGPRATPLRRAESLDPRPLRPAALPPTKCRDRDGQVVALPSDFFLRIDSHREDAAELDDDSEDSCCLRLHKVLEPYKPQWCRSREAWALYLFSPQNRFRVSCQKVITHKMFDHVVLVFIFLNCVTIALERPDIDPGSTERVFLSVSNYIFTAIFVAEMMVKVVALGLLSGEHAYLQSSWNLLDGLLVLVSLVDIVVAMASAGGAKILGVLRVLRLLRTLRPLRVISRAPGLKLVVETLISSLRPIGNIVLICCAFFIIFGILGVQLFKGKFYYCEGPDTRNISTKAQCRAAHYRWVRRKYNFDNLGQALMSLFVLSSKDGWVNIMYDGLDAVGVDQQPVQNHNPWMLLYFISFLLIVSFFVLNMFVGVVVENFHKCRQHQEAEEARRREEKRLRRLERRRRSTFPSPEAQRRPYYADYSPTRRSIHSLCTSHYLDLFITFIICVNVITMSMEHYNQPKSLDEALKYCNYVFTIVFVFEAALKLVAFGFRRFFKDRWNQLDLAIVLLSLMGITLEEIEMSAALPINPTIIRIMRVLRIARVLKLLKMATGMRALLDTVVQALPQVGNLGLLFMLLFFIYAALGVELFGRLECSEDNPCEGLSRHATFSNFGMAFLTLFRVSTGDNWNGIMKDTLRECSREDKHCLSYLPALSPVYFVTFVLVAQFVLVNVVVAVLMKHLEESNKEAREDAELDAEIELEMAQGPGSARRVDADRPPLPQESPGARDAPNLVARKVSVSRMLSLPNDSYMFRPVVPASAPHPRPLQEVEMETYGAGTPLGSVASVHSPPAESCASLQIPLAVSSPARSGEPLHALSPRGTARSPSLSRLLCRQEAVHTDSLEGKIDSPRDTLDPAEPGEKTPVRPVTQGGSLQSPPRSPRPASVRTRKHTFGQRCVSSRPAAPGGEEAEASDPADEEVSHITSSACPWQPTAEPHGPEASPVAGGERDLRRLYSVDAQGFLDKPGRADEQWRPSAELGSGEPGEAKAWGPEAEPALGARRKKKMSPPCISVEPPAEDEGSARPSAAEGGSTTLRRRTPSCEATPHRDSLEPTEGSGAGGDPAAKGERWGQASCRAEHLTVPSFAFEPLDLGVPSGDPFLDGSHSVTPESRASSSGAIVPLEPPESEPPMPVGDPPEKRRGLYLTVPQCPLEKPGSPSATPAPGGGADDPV

[10] = viability of HCT116 lacking mutant beta-catenin – cell-based, human colon tumor, dose response (AID 1045); format: functional;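 note: HCT116 colon tumor cells with beta catenin knocked out; cells exposed to compound for 60 hours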
[11] = viability of PTEN-deleted HCT116 cells – cell-based, HCT116 PTEN knockout, dose response (AID 1047); format: functional;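 note: HCT116 colon tumor cells with PTEN knocked out; cells exposed to compound for 60 hours before readout; potency for loss of cell viability measured by luminescence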
Fatty acid synthase [12] = target: T4, Fatty acid synthase (Homo sapiens, UniProt P49327); experiment: inhibition of human FAS-TE enzyme activity – biochemical, kinetic fluorescence intensity, dose response (AID 624326); format: functional;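 note: rate of fluorescence rise from hydrolysis of a fluorogenic O-methyl fluorescein ester substrate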
Prothrombin = Prothrombin (Homo sapiens, UniProt P00734); experiment: Thrombin 1536 HTS Dose Response Confirmation. [Related pubchem assays: 1046 (Thrombin 1536 HTS; hits were confirmed in this assay)]; format: functional
Fatty acid synthase [13] = target: T4, Fatty acid synthase; experiment: inhibition of human FAS-TE enzyme activity – biochemical, endpoint fluorescence intensity, uHTS hits, dose response (AID 624327); format: functional;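 note: fluorescence from hydrolysis of an O-methyl fluorescein acyl ester substrate by the enzyme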
Cytochrome P450 1A2 = target: T5, Cytochrome P450 1A2 (Homo sapiens, UniProt P05177);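 note: PubChem cytochrome P450 panel assay, CYP1A2 panel member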
T5 sequence (P05177 whole entry): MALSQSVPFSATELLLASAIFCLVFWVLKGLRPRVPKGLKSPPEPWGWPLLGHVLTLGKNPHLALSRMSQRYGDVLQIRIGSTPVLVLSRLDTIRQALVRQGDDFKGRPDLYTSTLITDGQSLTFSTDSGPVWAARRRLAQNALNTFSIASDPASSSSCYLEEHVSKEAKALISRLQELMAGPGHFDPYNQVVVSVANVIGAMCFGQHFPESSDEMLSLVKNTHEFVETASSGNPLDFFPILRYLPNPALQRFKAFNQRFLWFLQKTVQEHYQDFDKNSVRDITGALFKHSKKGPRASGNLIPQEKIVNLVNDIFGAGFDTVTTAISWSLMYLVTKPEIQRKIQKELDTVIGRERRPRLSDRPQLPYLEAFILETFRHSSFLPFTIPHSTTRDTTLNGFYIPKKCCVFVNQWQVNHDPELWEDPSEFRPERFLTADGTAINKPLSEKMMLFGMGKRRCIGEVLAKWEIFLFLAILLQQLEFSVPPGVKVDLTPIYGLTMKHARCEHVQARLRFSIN

Cytochrome P450 3A4 = Cytochrome P450 3A4 (Homo sapiens, UniProt P08684);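 note: CYP3A4 tested as one member of a cytochrome P450 panel screen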
[14] = target: T6, Heat shock factor protein 1 (Mus musculus, UniProt P38532); experiment: decrease of HSF1-responsive luciferase luminescence – cell-based, NIH3T3, dose retest, confirmation (AID 2382); format: functional;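 note: NIH3T3 fibroblasts with HSF1-driven luciferase reporter stressed by proteasome inhibitor MG132; luminescence from HSF1-driven luciferase expression after 8 hours of MG132 stress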
T6 sequence (P38532 whole entry): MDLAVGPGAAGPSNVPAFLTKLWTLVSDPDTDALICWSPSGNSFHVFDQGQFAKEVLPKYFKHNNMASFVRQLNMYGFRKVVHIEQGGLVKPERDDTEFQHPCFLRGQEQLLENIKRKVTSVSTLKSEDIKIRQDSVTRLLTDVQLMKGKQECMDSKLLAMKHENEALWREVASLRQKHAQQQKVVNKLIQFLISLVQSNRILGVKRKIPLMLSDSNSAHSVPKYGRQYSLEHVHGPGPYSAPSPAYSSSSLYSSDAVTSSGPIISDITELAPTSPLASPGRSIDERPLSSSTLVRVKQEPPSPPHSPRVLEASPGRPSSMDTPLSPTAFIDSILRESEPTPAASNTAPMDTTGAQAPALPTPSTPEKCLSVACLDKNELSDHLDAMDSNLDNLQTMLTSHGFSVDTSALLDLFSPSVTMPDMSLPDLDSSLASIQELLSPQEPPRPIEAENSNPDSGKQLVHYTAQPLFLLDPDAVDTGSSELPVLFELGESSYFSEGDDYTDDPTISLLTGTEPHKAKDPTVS

[15] = target: Induced myeloid leukemia cell differentiation protein Mcl-1 (Homo sapiens, UniProt Q07820); format: functional
Chain of Induced myeloid leukemia cell differentiation protein Mcl-1 (Q07820 whole entry): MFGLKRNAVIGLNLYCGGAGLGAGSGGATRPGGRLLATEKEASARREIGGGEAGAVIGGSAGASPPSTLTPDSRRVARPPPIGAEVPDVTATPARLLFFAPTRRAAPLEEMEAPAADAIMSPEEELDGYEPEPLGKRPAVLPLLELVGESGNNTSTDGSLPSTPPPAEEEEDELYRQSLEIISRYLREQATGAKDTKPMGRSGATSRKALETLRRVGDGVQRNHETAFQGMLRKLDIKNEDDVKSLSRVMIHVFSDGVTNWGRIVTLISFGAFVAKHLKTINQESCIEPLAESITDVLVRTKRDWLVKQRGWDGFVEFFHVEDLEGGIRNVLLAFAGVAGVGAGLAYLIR

Cytochrome P450 2D6 = Cytochrome P450 2D6 (Homo sapiens, UniProt P10635);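 note: CYP2D6 member of a cytochrome P450 panel assay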
Cytochrome P450 2C19 = Cytochrome P450 2C19 (Homo sapiens, UniProt P33261); experiment: Cytochrome panel assay with activity outcomes. Panel member name: p450-cyp2c19 Compounds with AC50 equal or less than 10 uM are considered active; format: functional; details: read-out: AC50
Chain of Cytochrome P450 2C19 (P33261 whole entry): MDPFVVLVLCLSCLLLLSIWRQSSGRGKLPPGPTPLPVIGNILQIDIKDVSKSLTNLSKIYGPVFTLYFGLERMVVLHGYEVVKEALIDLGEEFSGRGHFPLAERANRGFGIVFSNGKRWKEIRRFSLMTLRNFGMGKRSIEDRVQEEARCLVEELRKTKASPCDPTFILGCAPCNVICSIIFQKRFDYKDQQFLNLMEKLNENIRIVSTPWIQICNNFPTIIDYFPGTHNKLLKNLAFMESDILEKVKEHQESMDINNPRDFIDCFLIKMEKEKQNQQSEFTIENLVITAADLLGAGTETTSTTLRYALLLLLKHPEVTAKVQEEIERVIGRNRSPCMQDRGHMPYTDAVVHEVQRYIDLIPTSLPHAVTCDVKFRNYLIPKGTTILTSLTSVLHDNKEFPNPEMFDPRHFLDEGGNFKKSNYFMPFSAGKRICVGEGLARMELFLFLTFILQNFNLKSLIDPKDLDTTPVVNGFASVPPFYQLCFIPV

Cytochrome P450 2C9 = Cytochrome P450 2C9 (Homo sapiens, UniProt P11712)
Chain of Cytochrome P450 2C9 (P11712 whole entry): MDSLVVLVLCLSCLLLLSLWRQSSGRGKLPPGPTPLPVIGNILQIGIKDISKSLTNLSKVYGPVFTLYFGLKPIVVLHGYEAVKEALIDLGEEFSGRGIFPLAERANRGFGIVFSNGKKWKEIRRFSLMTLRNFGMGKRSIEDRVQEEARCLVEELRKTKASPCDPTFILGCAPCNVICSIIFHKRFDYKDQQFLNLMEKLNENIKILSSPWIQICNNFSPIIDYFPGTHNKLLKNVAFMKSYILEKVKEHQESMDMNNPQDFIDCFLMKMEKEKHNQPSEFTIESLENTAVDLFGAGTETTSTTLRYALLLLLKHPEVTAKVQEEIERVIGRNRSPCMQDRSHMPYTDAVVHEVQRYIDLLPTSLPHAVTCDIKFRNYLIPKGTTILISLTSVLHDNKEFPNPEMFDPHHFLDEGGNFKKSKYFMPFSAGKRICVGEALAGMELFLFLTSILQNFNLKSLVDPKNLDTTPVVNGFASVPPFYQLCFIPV

Chain of Mu-type opioid receptor (P35372 whole entry): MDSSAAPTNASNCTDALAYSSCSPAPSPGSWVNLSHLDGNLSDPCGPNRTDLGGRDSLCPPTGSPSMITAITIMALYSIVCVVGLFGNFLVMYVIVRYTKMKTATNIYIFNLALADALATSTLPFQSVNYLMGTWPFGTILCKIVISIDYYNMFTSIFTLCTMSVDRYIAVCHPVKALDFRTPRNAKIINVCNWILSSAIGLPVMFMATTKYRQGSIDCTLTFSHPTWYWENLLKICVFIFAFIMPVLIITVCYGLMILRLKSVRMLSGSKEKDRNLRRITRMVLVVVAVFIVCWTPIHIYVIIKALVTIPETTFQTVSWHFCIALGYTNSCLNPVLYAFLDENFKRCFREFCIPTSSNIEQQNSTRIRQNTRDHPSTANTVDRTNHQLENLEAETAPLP

O=C(CCN1CCN(c2ccccc2)CC1)N/N=C/c1ccccc1OC(F)F
EC50 (Mu-type opioid receptor): 92.5 µM (inactive) | EC50 [1]: 25.4 µM (inactive)

C[C@H](NC(=O)Nc1ccc2c(c1)OCCO2)C(=O)O
IC50 [2]: > 47.1 µM (inactive) | EC50 [3]: > 53 µM (inactive)

O=S(=O)(c1ccc(OCC(O)CN2CCN(c3ccccc3Cl)CC2)cc1)N1CCOCC1 (stereo unspecified)
EC50 (Mu-type opioid receptor): 92.5 µM (inactive) | EC50 [1]: 25.4 µM (inactive)

Cc1ccc(S(=O)(=O)Oc2cccc(/C=N/Nc3ccc(C(=O)O)cc3)c2)cc1
IC50 [4]: 53.5 µM (inactive)

CC1CCC2=NN(C(=O)c3ccco3)C(O)(C(F)(F)F)C2C1 (stereo unspecified)
IC50 [2]: > 47.1 µM (inactive) | EC50 [3]: > 53 µM (inactive)

COCCn1c(SCc2ccccc2F)nc2ccccc2c1=O
EC50 [5]: 1.88 µM (active) | IC50 [6]: 9.21 µM (not active)

Cc1ccc(S(=O)(=O)N(C)C)cc1NC(=O)CSc1nc2cc(Cl)c[nH]c-2n1
IC50 [4]: > 80 µM (inactive)

CCn1c(SCc2nc3scc(-c4ccccc4)c3c(=O)[nH]2)nnc1-c1cccs1
IC50 [4]: > 80 µM (inactive)

CCOc1cccc(-c2c(C(=O)N/N=C/c3ccc(Br)cc3)nnn2-c2nonc2N)c1
EC50 (cells [7]): > 350 µM (not active) | EC50 (cells [8]): 160 µM (active)

Cc1ccc(-c2noc(CSc3nnnn3C3CCCCC3)n2)cc1
EC50 [9]: 1.95 µM (active)

C=CCOc1ccc(/C=N/N2C(=O)C(CC(=O)Nc3ccc(F)cc3F)S/C2=N\C)cc1 (stereo unspecified)
IC50 [6]: > 50 µM (not active) | EC50 [10]: 79.4 µM (active) | EC50 [11]: 17.6 µM (active)

COc1ccc(CNc2nc3c(c(=O)n(Cc4ccc(Br)cc4)c(=O)n3C)n2C)cc1
IC50 [6]: 2.3 µM (active)

COc1ccc(-c2nnc(N3CCCCC3)c3ccccc23)cc1
EC50 [9]: 11.3 µM (active)

O=C1c2ccccc2C(=O)N1CCc1csc(-c2ccc(F)cc2)n1
IC50 [6]: > 50 µM (not active)

CCn1cc(C(=O)NCc2ccc3c(c2)OCO3)c(=O)c2cc(S(=O)(=O)N(C)C)ccc21
IC50 (Fatty acid synthase [12]): 12.1 µM (active) | IC50 (Prothrombin): 0.537 µM (active) | IC50 (Fatty acid synthase [13]): 8.88 µM (active)

CCC(C(=O)Nc1cccc(C(F)(F)F)c1)c1ccccc1 (stereo unspecified)
AC50 (Cytochrome P450 1A2): 2.51 µM (inconclusive) | AC50 (Cytochrome P450 3A4): 14.1 µM (inconclusive) | EC50 [9]: 2.89 µM (active)

O=C(Oc1oc(-c2ccco2)nc1/C=N/c1ccccc1)c1ccoc1
IC50 (Prothrombin): 1.37 µM (active) | EC50 [14]: > 195 µM (not active)

Cc1ccc(N2CCN(C3=NC(=O)/C(=C\c4cccs4)S3)CC2)cc1
IC50 [6]: 19.3 µM (not active)

Cc1ccc(CN(C(=O)c2ccccc2[N+](=O)[O-])C2CCS(=O)(=O)C2)o1 (stereo unspecified)
IC50 [2]: > 47.1 µM (inactive) | EC50 [3]: > 53 µM (inactive)

O=C(CN1C(=O)C2CC=CCC2C1=O)Nc1nnc(SCc2ccc(Cl)cc2)s1 (stereo unspecified)
EC50 [9]: 5.35 µM (active)

O=C(Nc1ccc(Cl)cc1)N1CCc2[nH]c3ccccc3c2C1
IC50 [15]: 2.32 µM (not active) | AC50 (Cytochrome P450 2D6): 22.4 µM (inconclusive) | AC50 (Cytochrome P450 2C19): 2 µM (inconclusive) | EC50 [9]: 0.802 µM (active) | AC50 (Cytochrome P450 2C9): 3.98 µM (inconclusive)

COc1cccc(/C=N\NC(=O)Cn2nnc3ccccc32)c1O
EC50 (cells [7]): 172 µM (active) | EC50 (cells [8]): > 350 µM (not active)
